Patent US9995734B2, “Human T cell line assay for evaluating the immunologic identity of glatiramer acetate preparations” (Mylan Inc., priority 2013, dated 2018)

How the values were obtained:
Format in all cases: cell-based, human
Donor 3 GMA T-Cell Lines = experiment: ATP proliferation assay (CellTiter Glo), Donor 3 GMA T-cell lines, incl. reactivity to non-canonical GA peptides; conditions: for Non-Canonical Peptide Non-Reactivity: proliferation <2 times no antigen control
[1] = system: Donor 1 GMA Expanded T-Cell Lines (222-AG11, 222-AG12, 222-BA11, 222-BC11); experiment: ATP proliferation assay (CellTiter Glo), Donor 1 GMA expanded T-cell lines, incl. reactivity to non-canonical GA peptides; conditions: for Proliferation (luminescent ATP assay), Mean: T-cell line 222-AG12, autologous B-LCL
Summary of the method: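 GMA-expanded T-cell lines from Donor 1 restimulated with GMA (0–100 μg/mL), or with non-canonical GA peptides, COP and GMA (0–30 μg/mL; T cells 2×10^5 cells/mL). Mitomycin C-treated autologous PBMC or B-LCL served as APC. Proliferation read by CellTiter-Glo ATP luminescence after 3 days at 37° C.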

Donor 3 COP T-Cell Lines = experiment: ATP proliferation assay (CellTiter Glo), Donor 3 COP T-cell lines, incl. reactivity to non-canonical GA peptides; conditions: for Non-Canonical Peptide Non-Reactivity: proliferation <2 times no antigen control

Substance: poly (Glu-Tyr; 1:1) [GT 11]
- Non-Canonical Peptide Non-Reactivity (Donor 3 GMA T-Cell Lines; 165-B5G): GT 11
- Non-Canonical Peptide Non-Reactivity (Donor 3 GMA T-Cell Lines; 165-C4G): GT 11
- Non-Canonical Peptide Non-Reactivity (Donor 3 GMA T-Cell Lines; 165-C5G): GT 11
- Non-Canonical Peptide Non-Reactivity (Donor 3 GMA T-Cell Lines; 165-E7G): GT 11
- Non-Canonical Peptide Non-Reactivity (Donor 3 GMA T-Cell Lines; 165-E9G): GT 11
- Non-Canonical Peptide Non-Reactivity (Donor 3 GMA T-Cell Lines; 165-F5G): GT 11
- Non-Canonical Peptide Non-Reactivity (Donor 3 GMA T-Cell Lines; 165-F8G): GT 11
- Non-Canonical Peptide Non-Reactivity (Donor 3 GMA T-Cell Lines; 165-F10G): GT 11
- Non-Canonical Peptide Non-Reactivity (Donor 3 GMA T-Cell Lines; 165-H11G): GT 11
- Proliferation (luminescent ATP assay), Mean (Donor 3 GMA T-Cell Lines; T-cell line 165-B5G, 1.25 μg/mL antigen, Day 55 of culturing, No Antigen Value 846): 2167 RLU
- Proliferation (luminescent ATP assay), Mean (Donor 3 GMA T-Cell Lines; T-cell line 165-B5G, 2.5 μg/mL antigen, Day 55 of culturing, No Antigen Value 846): 1957 RLU
- Proliferation (luminescent ATP assay), Mean (Donor 3 GMA T-Cell Lines; T-cell line 165-B5G, 5 μg/mL antigen, Day 55 of culturing, No Antigen Value 846): 1353 RLU
- Proliferation (luminescent ATP assay), Mean (Donor 3 GMA T-Cell Lines; T-cell line 165-B5G, 10 μg/mL antigen, Day 55 of culturing, No Antigen Value 846): 1191 RLU
- Proliferation (luminescent ATP assay), Mean (Donor 3 GMA T-Cell Lines; T-cell line 165-C5G, 1.25 μg/mL antigen, autologous B-LCL): 523 RLU
- Proliferation (luminescent ATP assay), Mean (Donor 3 GMA T-Cell Lines; T-cell line 165-C5G, 2.5 μg/mL antigen, autologous B-LCL): 620 RLU
- Proliferation (luminescent ATP assay), Mean (Donor 3 GMA T-Cell Lines; T-cell line 165-C5G, 5 μg/mL antigen, autologous B-LCL): 428 RLU
- Proliferation (luminescent ATP assay), Mean (Donor 3 GMA T-Cell Lines; T-cell line 165-C5G, 10 μg/mL antigen, autologous B-LCL): 471 RLU
- Proliferation (luminescent ATP assay), Mean (Donor 3 GMA T-Cell Lines; T-cell line 165-E7G, 1.25 μg/mL antigen, autologous B-LCL, Day 55): 2821 RLU
- Proliferation (luminescent ATP assay), Mean (Donor 3 GMA T-Cell Lines; T-cell line 165-E7G, 2.5 μg/mL antigen, autologous B-LCL, Day 55): 2914 RLU
- Proliferation (luminescent ATP assay), Mean (Donor 3 GMA T-Cell Lines; T-cell line 165-E7G, 5 μg/mL antigen, autologous B-LCL, Day 55): 2332 RLU
- Proliferation (luminescent ATP assay), Mean (Donor 3 GMA T-Cell Lines; T-cell line 165-E7G, 10 μg/mL antigen, autologous B-LCL, Day 55): 1848 RLU
- Proliferation (luminescent ATP assay), Mean (Donor 3 GMA T-Cell Lines; T-cell line 165-E9G, 1.25 μg/mL antigen, autologous B-LCL): 110 RLU
- Proliferation (luminescent ATP assay), Mean (Donor 3 GMA T-Cell Lines; T-cell line 165-E9G, 2.5 μg/mL antigen, autologous B-LCL): 119 RLU
- Proliferation (luminescent ATP assay), Mean (Donor 3 GMA T-Cell Lines; T-cell line 165-E9G, 5 μg/mL antigen, autologous B-LCL): 103 RLU
- Proliferation (luminescent ATP assay), Mean (Donor 3 GMA T-Cell Lines; T-cell line 165-E9G, 10 μg/mL antigen, autologous B-LCL): 96 RLU
- Proliferation (luminescent ATP assay), Mean (Donor 3 GMA T-Cell Lines; T-cell line 165-F5G, 1.25 μg/mL antigen, autologous B-LCL): 160 RLU
- Proliferation (luminescent ATP assay), Mean (Donor 3 GMA T-Cell Lines; T-cell line 165-F5G, 2.5 μg/mL antigen, autologous B-LCL): 124 RLU
- Proliferation (luminescent ATP assay), Mean (Donor 3 GMA T-Cell Lines; T-cell line 165-F5G, 5 μg/mL antigen, autologous B-LCL): 124 RLU
- Proliferation (luminescent ATP assay), Mean (Donor 3 GMA T-Cell Lines; T-cell line 165-F5G, 10 μg/mL antigen, autologous B-LCL): 158 RLU
- Proliferation (luminescent ATP assay), Mean (Donor 3 GMA T-Cell Lines; T-cell line 165-F10G, 1.25 μg/mL antigen, autologous B-LCL): 1388 RLU
- Proliferation (luminescent ATP assay), Mean (Donor 3 GMA T-Cell Lines; T-cell line 165-F10G, 2.5 μg/mL antigen, autologous B-LCL): 1506 RLU
- Proliferation (luminescent ATP assay), Mean (Donor 3 GMA T-Cell Lines; T-cell line 165-F10G, 5 μg/mL antigen, autologous B-LCL): 1598 RLU
- Proliferation (luminescent ATP assay), Mean (Donor 3 GMA T-Cell Lines; T-cell line 165-F10G, 10 μg/mL antigen, autologous B-LCL): 1294 RLU
- Proliferation (luminescent ATP assay), Mean (Donor 3 GMA T-Cell Lines; T-cell line 165-H11G, 1.25 μg/mL antigen, autologous B-LCL): 17 RLU
- Proliferation (luminescent ATP assay), Mean (Donor 3 GMA T-Cell Lines; T-cell line 165-H11G, 2.5 μg/mL antigen, autologous B-LCL): 354 RLU
- Proliferation (luminescent ATP assay), Mean (Donor 3 GMA T-Cell Lines; T-cell line 165-H11G, 5 μg/mL antigen, autologous B-LCL): 352 RLU
- Proliferation (luminescent ATP assay), Mean (Donor 3 GMA T-Cell Lines; T-cell line 165-H11G, 10 μg/mL antigen, autologous B-LCL): 308 RLU
- Non-Canonical Peptide Non-Reactivity ([1]; 222-AG12, proliferation <2 times no antigen control): GT 11
- Nonreactive T-Cell Line ([1]; Donor 1 GMA expanded lines, stimulation with the non-canonical GA peptide): 222-AG12 (Donor 1)
- Proliferation (luminescent ATP assay), Mean ([1]; 1 ug/mL antigen): 2650 RLU
- Proliferation (luminescent ATP assay), Mean ([1]; 10 ug/mL antigen): 3285 RLU
- Proliferation (luminescent ATP assay), Mean ([1]; 30 ug/mL antigen): 2231 RLU
- Non-Canonical Peptide Non-Reactivity (Donor 3 COP T-Cell Lines; 165-B6C): GT 11
- Non-Canonical Peptide Non-Reactivity (Donor 3 COP T-Cell Lines; 165-B10C): GT 11
- Non-Canonical Peptide Non-Reactivity (Donor 3 COP T-Cell Lines; 165-C4C): GT 11
- Non-Canonical Peptide Non-Reactivity (Donor 3 COP T-Cell Lines; 165-C7C): GT 11
- Non-Canonical Peptide Non-Reactivity (Donor 3 COP T-Cell Lines; 165-D2C): GT 11
- Non-Canonical Peptide Non-Reactivity (Donor 3 COP T-Cell Lines; 165-D3C): GT 11
- Non-Canonical Peptide Non-Reactivity (Donor 3 COP T-Cell Lines; 165-F3C): GT 11
- Non-Canonical Peptide Non-Reactivity (Donor 3 COP T-Cell Lines; 165-F6C): GT 11
- Non-Canonical Peptide Non-Reactivity (Donor 3 COP T-Cell Lines; 165-U3C (so in the source)): GT 11
- Proliferation (luminescent ATP assay), Mean (Donor 3 COP T-Cell Lines; T-cell line 165-C4C, 1 μg/mL antigen, Day 66 of culture, 0 μg/mL 1881): 2664
- Proliferation (luminescent ATP assay), Mean (Donor 3 COP T-Cell Lines; T-cell line 165-C4C, 3 μg/mL antigen, Day 66 of culture, 0 μg/mL 1881): 2804
- Proliferation (luminescent ATP assay), Mean (Donor 3 COP T-Cell Lines; T-cell line 165-C4C, 10 μg/mL antigen, Day 66 of culture, 0 μg/mL 1881): 2311
- Proliferation (luminescent ATP assay), Mean (Donor 3 COP T-Cell Lines; T-cell line 165-C7C, 1.25 μg/mL antigen, autologous B-LCL): 346 RLU
- Proliferation (luminescent ATP assay), Mean (Donor 3 COP T-Cell Lines; T-cell line 165-C7C, 2.5 μg/mL antigen, autologous B-LCL): 265 RLU
- Proliferation (luminescent ATP assay), Mean (Donor 3 COP T-Cell Lines; T-cell line 165-C7C, 5 μg/mL antigen, autologous B-LCL): 255 RLU
- Proliferation (luminescent ATP assay), Mean (Donor 3 COP T-Cell Lines; T-cell line 165-C7C, 10 μg/mL antigen, autologous B-LCL): 234 RLU
- Proliferation (luminescent ATP assay), Mean (Donor 3 COP T-Cell Lines; T-cell line 165-F3C, 1 μg/mL antigen, Day 77 of culture, 0 μg/mL 1563): 2108
- Proliferation (luminescent ATP assay), Mean (Donor 3 COP T-Cell Lines; T-cell line 165-F3C, 3 μg/mL antigen, Day 77 of culture, 0 μg/mL 1563): 2152
- Proliferation (luminescent ATP assay), Mean (Donor 3 COP T-Cell Lines; T-cell line 165-F3C, 10 μg/mL antigen, Day 77 of culture, 0 μg/mL 1563): 1652
- Proliferation (luminescent ATP assay), Mean (Donor 3 COP T-Cell Lines; T-cell line 165-F6C, 1.25 μg/mL antigen, Day 76 of culture, No Antigen value 517): 406
- Proliferation (luminescent ATP assay), Mean (Donor 3 COP T-Cell Lines; T-cell line 165-F6C, 2.5 μg/mL antigen, Day 76 of culture, No Antigen value 517): 426
- Proliferation (luminescent ATP assay), Mean (Donor 3 COP T-Cell Lines; T-cell line 165-F6C, 5 μg/mL antigen, Day 76 of culture, No Antigen value 517): 388
- Proliferation (luminescent ATP assay), Mean (Donor 3 COP T-Cell Lines; T-cell line 165-F6C, 10 μg/mL antigen, Day 76 of culture, No Antigen value 517): 303
